Experimental data reported in patent US20230321083A1, “Inhibitors of GPR174 and Uses Thereof” (Omeros Corporation, priority 2016, published 2023).

Experiments:
human PBMCs = test: Treg (FoxP3/Helios) flow cytometry in anti-CD3/anti-CD28 stimulated human PBMCs; assay type: cell-based
Protocol: (§1) A fraction of the cells was taken for staining on day 3 post-stimulation, while the rest of the cells were split 1:4 with fresh medium and used for staining on day 7 post-stimulation. To determine the fraction of natural Treg (nTreg) cells (FoxP3^+Helios^+), PBMCs were washed, stained with fluorescently labeled anti-CD4 antibodies, fixed, permeabilized and stained with a mixture of fluorescent anti-FoxP3 and anti-Helios antibodies. Labeled cells were analyzed by flow cytometry for populations stained for these three markers. Each experiment was performed in triplicate and was repeated five times.
as §1, with “three” for “five”
as §1, with “day 2” for “day 3”, “(FoxP3^+Helios^+), PBMC” for “(FoxP3^+Helios^+), PBMCs”

[1] = test system: CTLA4 expression in human PBMC T cells; test: CTLA4 expression on T cell subsets in human PBMC cultures; assay type: cell-based; conditions: 0.19-6.0 μM; one day post-stimulation; dose-dependent
Protocol: PBMC cells from a single donor were cultured overnight with additional irradiated antigen-presenting cells (APC) in the presence of various concentrations of GPR174 inhibitory compound #10 (0.019 to 6 μM) or equivalent concentrations of vehicle (DMSO). Anti-CD3 (OKT3) was then added to the cultures for an additional 24 hours. The cells were analyzed by flow cytometry for expression of FOXP3, CTLA-4, CD4, CD3, CD45RA and CD25.

ADBR2 = target: T1, ADBR2 (Homo sapiens, UniProt P07550); test: CRE-Luc reporter Gs signaling assay, control receptor ADBR2; assay type: cell-based
T1 construct: host or cells: HEK293 or CHO cell lines (ATCC)
Protocol: (§2) Compounds were tested in the reporter system with increasing concentrations of GPR174-interacting compounds. GPR174 construct pCMV6-XL4-GPR174 or ADBR2, reporter of interest, pCRE-Luc or GL4.29 (3000 ng), and TK-renilla as an internal control (10 ng) with lipofectamine 2000 (60 ug) (Invitrogen, CA) according to the manufacturer's directions.
(§3) The DNA/lipofectamine 2000 mix (3000 μL) was incubated at room temperature for 30 minutes and then added into a 10 cm culture dish (Corning, NY) containing 70-90% confluent cultured cells, typically HEK293 or CHO cell lines (ATCC, VA), in 15 mL of media. The cells were further incubated for 4-6 hours at 37° C. and then media were removed and cells were detached with 2 mL trypsin (Life Technologies, CA). Media (26 mL) were added to the detached cells and 120 μL of transfected cells were transferred to each well on a 96-well plate. Increasing concentration of each compound in DMSO (1.2 μl) was added to the cells after plating into the 96-well plate. The cells were further incubated at 37° C. for various times. The media were removed and the cells lysed. Luciferase and renilla activities were measured with the Dual-luciferase assay system (Promega, WI) according to the manufacturer's directions. Typically, lysis buffer (25 μL) was added to the cells and incubated at room temperature for 20-30 minutes to allow for the cells to lyse. The lysate (10 μL) was measured for luciferase and renilla activity with LARII and Stop&Glo reagent (50 μL each) with a SpectraMax L (Molecular Devices, CA). Data were analyzed with either Excel (Microsoft, WA) or Prism 4.03 (GraphPad, CA).
(§4) ADBR2 is a GPCR, like GPR174, that activates the Gs signaling pathway.

GPR174 = GPR174 (Homo sapiens, UniProt Q9BXC1); test: CRE-Luc reporter Gs signaling assay, cells transfected with GPR174; assay type: cell-based; design: host or cells: HEK293 or CHO cell lines (ATCC); conditions: CRE-Luc reporter
Protocol: as §2, §3, §4

[2] = test system: PD-L1, TIGIT, AREG expression in human T cells; test: PD-L1, TIGIT and AREG expression on human T cells in PBMC cultures; assay type: cell-based; conditions: 1.25 or 5 μM; one day post-stimulation; dose-dependent
Protocol: PBMC cells from a single donor mixed with additional irradiated antigen-presenting cells (APC) and anti-CD3 antibodies (UCHT1) were incubated in the presence of various concentrations of GPR174 inhibitory compound #10 (1.25 to 5 μM) or equivalent concentrations of vehicle (DMSO). The cells were analyzed by flow cytometry for expression of CD4, CD8, PD-L1, TIGIT and AREG.

C57BL/6+DBA1 splenocytes = test: Cytokines in C57BL/6 + DBA1 splenocyte co-culture; assay type: cell-based, mouse; conditions: 30 μM; day 6 after mixing
Protocol: In order to stimulate T cells in mice, splenocytes obtained from two different mouse strains, C57BL/6 and DBA1, were mixed in culture.
The effect of compound #10 on production of cytokines (IFN-γ, IL-5, TNF-α, IL-2, IL-6, IL-4, IL-10, IL-9, IL17A, IL17F, IL-21, IL-22 and IL-13) in mouse splenocyte co-cultures was determined as follows. Splenocytes obtained from two different mouse strains, C57BL/6 and DBA1, were mixed in culture in the presence or absence of 30 μM compound #10. Cytokine production of IFN-γ, IL-5, TNF-α, IL-2, IL-6, IL-4, IL-10, IL-9, IL-17A, IL-17F, IL-21, IL-22 and IL-13 was measured in the co-culture supernatant at day 4 and day 6 after mixing. Cytokine levels were determined by LEGENDplex™ bead-based immunoassays from BioLegend (San Diego, CA) according to the manufacturer's instructions.

GPR174, sequence (Q9BXC1 whole entry): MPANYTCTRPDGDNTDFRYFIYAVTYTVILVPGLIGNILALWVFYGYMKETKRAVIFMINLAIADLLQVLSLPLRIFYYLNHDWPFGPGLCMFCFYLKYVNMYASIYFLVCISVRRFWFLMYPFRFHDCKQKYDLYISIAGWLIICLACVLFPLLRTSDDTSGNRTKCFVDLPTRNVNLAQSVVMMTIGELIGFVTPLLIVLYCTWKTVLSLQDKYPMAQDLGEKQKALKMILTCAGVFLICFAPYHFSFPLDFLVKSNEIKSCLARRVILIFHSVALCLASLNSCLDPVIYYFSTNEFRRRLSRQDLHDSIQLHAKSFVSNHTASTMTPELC
T1 sequence (P07550 whole entry): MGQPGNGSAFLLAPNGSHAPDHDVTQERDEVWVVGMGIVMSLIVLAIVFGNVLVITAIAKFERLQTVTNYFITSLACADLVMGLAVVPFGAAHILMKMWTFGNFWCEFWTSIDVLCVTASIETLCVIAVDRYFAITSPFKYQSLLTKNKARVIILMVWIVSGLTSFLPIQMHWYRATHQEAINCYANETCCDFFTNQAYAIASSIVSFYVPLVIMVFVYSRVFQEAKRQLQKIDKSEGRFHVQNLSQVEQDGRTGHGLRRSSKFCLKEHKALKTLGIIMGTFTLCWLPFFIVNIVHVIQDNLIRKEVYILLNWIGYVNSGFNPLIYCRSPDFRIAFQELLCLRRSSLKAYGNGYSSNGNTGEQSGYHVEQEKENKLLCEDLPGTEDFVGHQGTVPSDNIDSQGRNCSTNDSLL

CC1CCN(c2cc(N3CCN(S(=O)(=O)c4ccccc4)CC3)c([N+](=O)[O-])cc2F)CC1 [Compound 10]
fraction of FoxP3+Helios− cells in CD4+ population (human PBMCs; day 3 post-stimulation, 100 μM, p=0.03 vs vehicle): significantly increased | abundance of FoxP3+Helios+ nTreg cells (fraction of vehicle) (human PBMCs; day 7, 30 μM, PBMC from eight donors): significantly reduced | abundance of FoxP3+Helios+ nTreg cells in CD4+ population (human PBMCs; day 7, 3, 10, 30 μM, single donor, dose-dependent): significantly reduced | abundance of FoxP3+Helios+ nTreg cells in CD4+ population (human PBMCs; day 7 post-stimulation, 100 μM, p=0.01 vs vehicle): significantly reduced | CTLA4 positive fraction of memory Treg (CD45RA−FOXP3+) [1]: reduced | CTLA4 positive fraction of memory non-Treg (CD45RA−FOXP3−) [1]: reduced | CTLA4 positive fraction of naïve non-Treg cells (CD45RA+FOXP3−) [1]: reduced | CTLA-4 positive fraction of naïve Treg cells (CD45RA+FOXP3+) [1]: reduced | effect on Gs pathway in the presence of ADBR2 (ADBR2): did not inhibit the Gs pathway | effect on Gs pathway in the presence of GPR174 (GPR174): inhibited the Gs pathway | fraction of human CD4+ T cells with AREG positive staining [2]: reduced | fraction of human CD4+ T cells with PD-L1 positive staining [2]: reduced | fraction of human CD8+ T cells with TGIT positive staining [2]: reduced | fold induction of a panel of cytokines in splenocyte co-culture (C57BL/6+DBA1 splenocytes): strong alteration in quantities of cytokines
